For test [1], the system named is human colorectal (SW620) carcinoma cells. The conditions noted are these: MTT.
Test [2] concerns Haemonchus contortus L1–L3 larvae. The conditions noted are these: pure compounds; four days.
For test [3], the system named is Dirofilaria immitis microfilariae. The conditions noted are these: pure compounds; ~72 h.
Test [4] deals with Haemonchus contortus L1–L3 larvae. Put plainly: microbe, parasite or virus in culture. The conditions noted are these: 96 h, read-out: H. contortus L1–L3 Larvae Development EC50.
Test [5] relates to human colorectal (SW620) carcinoma cells. The test can be described thus: cells. The conditions noted are these: SW-620, read-out: Human Colorectal Carcinoma Cells (SW620) IC50.
Test [6] relates to Dirofilaria immitis microfilariae. Put plainly: microbe, parasite or virus in culture. The following applies: 72 h, read-out: D. immitis mf Motility EC50, ~72 h.
In test [7] the test system is Staphylococcus aureus. Also on record: method as in PMID 24713874. The conditions noted are these: cited from earlier work.
In test [8] the test system is Erwinia amylovora. More on the design: method as in PMID 24317473. The conditions noted are these: at 25 μM; cited from earlier work.

Structures are written as SMILES. Values after ≈ are worked out from the molar mass of the structure shown. Square brackets hold non-standard residues; d marks the D form. Peptide text beside a SMILES is read from it. * marks the point of attachment. d(aIle) = CC[C@H](C)[C@@H](N)C(=O)O; hArg = N=C(N)NCCCC[C@H](N)C(=O)O; Lys(Me) = CNCCCC[C@H](N)C(=O)O; Lauroyl = CCCCCCCCCCCC(=O)*; Pyruvoyl = CC(=O)C(=O)*; Pentanoyl = CCCCC(=O)*; Propionyl = CCC(=O)*; Bz = O=C(c1ccccc1)*; For = O=C*

As for `CC[C@H](C)[C@@H]1NC(=O)[C@H](CCCCNC=O)NC(=O)[C@@H]([C@@H](C)CC)NC(=O)[C@H]([C@@H](C)CC)NC(=O)[C@@H](C)NC(=O)[C@H]([C@@H](C)CC)NC(=O)[C@@H](CC(C)C)NC(=O)[C@@H](Cc2ccccc2)NC1=O` [acyl-surugamide A1 (5), acyl-surugamide A1] (cyclo(I[d(aIle)]K(For)I[dF][dL]I[dA])), the “Human Colorectal Carcinoma Cells (SW620) IC50” value in test [1] is greater than 30 µg/mL. In addition, in test [2], the “H. contortus L1–L3 Larvae Development EC50” value is greater than 25 µg/mL. The “D. immitis mf Motility EC50” value in test [3] was greater than 25 µg/mL.

In the case of `CC[C@H](C)[C@@H]1NC(=O)[C@H](CCCCNC(C)=O)NC(=O)[C@@H]([C@@H](C)CC)NC(=O)[C@H]([C@@H](C)CC)NC(=O)[C@@H](C)NC(=O)[C@H]([C@@H](C)CC)NC(=O)[C@@H](CC(C)C)NC(=O)[C@@H](Cc2ccccc2)NC1=O` [acyl-surugamide A2 (6), acyl-surugamide A2] (cyclo(I[d(aIle)]K(Ac)I[dF][dL]I[dA])), in test [1], the “Human Colorectal Carcinoma Cells (SW620) IC50” value is greater than 30 µg/mL. For the same compound, in test [2], the “H. contortus L1–L3 Larvae Development EC50” value was greater than 25 µg/mL. Further, in test [3], the “D. immitis mf Motility EC50” value was greater than 25 µg/mL.

With `CCC(=O)NCCCC[C@@H]1NC(=O)[C@@H]([C@@H](C)CC)NC(=O)[C@H]([C@@H](C)CC)NC(=O)[C@@H](C)NC(=O)[C@H]([C@@H](C)CC)NC(=O)[C@@H](CC(C)C)NC(=O)[C@@H](Cc2ccccc2)NC(=O)[C@H]([C@@H](C)CC)NC1=O` [acyl-surugamide A3 (7), acyl-surugamide A3] (cyclo(I[d(aIle)]K(Propionyl)I[dF][dL]I[dA])), the “Human Colorectal Carcinoma Cells (SW620) IC50” value in test [1] is greater than 30 µg/mL. In addition, the “H. contortus L1–L3 Larvae Development EC50” value in test [2] was greater than 25 µg/mL. Also, the “D. immitis mf Motility EC50” value in test [3] was 3.3 µg/mL.

Consider `CC[C@H](C)[C@@H]1NC(=O)[C@H](CCCCNC(=O)C(C)=O)NC(=O)[C@@H]([C@@H](C)CC)NC(=O)[C@H]([C@@H](C)CC)NC(=O)[C@@H](C)NC(=O)[C@H]([C@@H](C)CC)NC(=O)[C@@H](CC(C)C)NC(=O)[C@@H](Cc2ccccc2)NC1=O` [acyl-surugamide A4 (8), acyl-surugamide A4] (cyclo(I[d(aIle)]K(Pyruvoyl)I[dF][dL]I[dA])), for which the “Human Colorectal Carcinoma Cells (SW620) IC50” value in test [1] was greater than 30 µg/mL. For the same compound, in test [2], the “H. contortus L1–L3 Larvae Development EC50” value was greater than 25 µg/mL. Moreover, in test [3], the “D. immitis mf Motility EC50” value was found to be 16.0 µg/mL.

As for `CCCCC(=O)NCCCC[C@@H]1NC(=O)[C@@H]([C@@H](C)CC)NC(=O)[C@H]([C@@H](C)CC)NC(=O)[C@@H](C)NC(=O)[C@H]([C@@H](C)CC)NC(=O)[C@@H](CC(C)C)NC(=O)[C@@H](Cc2ccccc2)NC(=O)[C@H]([C@@H](C)CC)NC1=O` [acyl-surugamide AS1 (13), acyl-surugamide AS1] (cyclo(I[d(aIle)]K(Pentanoyl)I[dF][dL]I[dA])), the “Human Colorectal Carcinoma Cells (SW620) IC50” value in test [1] was greater than 30 µg/mL. In addition, the “H. contortus L1–L3 Larvae Development EC50” value in test [2] was greater than 25 µg/mL. Further, the “D. immitis mf Motility EC50” value in test [3] worked out at 21 µg/mL.

For `CCCCCCCCCCCC(=O)NCCCC[C@@H]1NC(=O)[C@@H]([C@@H](C)CC)NC(=O)[C@H]([C@@H](C)CC)NC(=O)[C@@H](C)NC(=O)[C@H]([C@@H](C)CC)NC(=O)[C@@H](CC(C)C)NC(=O)[C@@H](Cc2ccccc2)NC(=O)[C@H]([C@@H](C)CC)NC1=O` [acyl-surugamide AS2 (14), acyl-surugamide AS2] (cyclo(I[d(aIle)]K(Lauroyl)I[dF][dL]I[dA])), the “Human Colorectal Carcinoma Cells (SW620) IC50” value in test [1] was greater than 30 µg/mL. Also, in test [2], the “H. contortus L1–L3 Larvae Development EC50” value is greater than 25 µg/mL. Further, the “D. immitis mf Motility EC50” value in test [3] is greater than 25 µg/mL.

Regarding `CC[C@H](C)[C@@H]1NC(=O)[C@H](CCCCNC(=O)c2ccccc2)NC(=O)[C@@H]([C@@H](C)CC)NC(=O)[C@H]([C@@H](C)CC)NC(=O)[C@@H](C)NC(=O)[C@H]([C@@H](C)CC)NC(=O)[C@@H](CC(C)C)NC(=O)[C@@H](Cc2ccccc2)NC1=O` [acyl-surugamide AS3 (15), acyl-surugamide AS3] (cyclo(I[d(aIle)]K(Bz)I[dF][dL]I[dA])), the “Human Colorectal Carcinoma Cells (SW620) IC50” value in test [1] was greater than 30 µg/mL. In test [2], the “H. contortus L1–L3 Larvae Development EC50” value is greater than 25 µg/mL. The “D. immitis mf Motility EC50” value in test [3] was found to be 3.4 µg/mL.

Usually EC50 stands for the midpoint of the concentration-response curve. As usually defined, the IC50 is the concentration at which inhibition is half-maximal. Regarding `CCCCCC[C@H]1C(=O)O[C@H](C)[C@H](NC(=O)c2cccc(NC=O)c2O)C(=O)O[C@@H](C)[C@@H]1OC(=O)C(C)C` [antimycin A2a (2), antimycin A2a], the EC50 in test [4] is 1.8 µg/mL (≈ 3.37 µM); in test [6], 0.0013 to 0.0021 µg/mL (≈ 0.00243 to 0.00393 µM). Besides, in test [5], the IC50 turned out to be 0.08 µg/mL (≈ 0.15 µM).

For `CCCC[C@H]1C(=O)O[C@H](C)[C@H](NC(=O)c2cccc(NC=O)c2O)C(=O)O[C@@H](C)[C@@H]1OC(=O)C(C)C` [antimycin A4a (1), antimycin A4a], the results for the EC50 in test [4] and in test [6] were 3.5 µg/mL (≈ 6.91 µM) and 0.0013 to 0.0021 µg/mL (≈ 0.00257 to 0.00415 µM), respectively. Further, the IC50 in test [5] is 0.061 µg/mL (≈ 0.12 µM).

As to `CC[C@H](C)[C@@H]1NC(=O)[C@H](CCCCN)NC(=O)[C@@H]([C@@H](C)CC)NC(=O)[C@H]([C@@H](C)CC)NC(=O)[C@@H](C)NC(=O)[C@H]([C@@H](C)CC)NC(=O)[C@@H](CC(C)C)NC(=O)[C@@H](Cc2ccccc2)NC1=O` [surugamide A (3), surugamide A] (cyclo(I[d(aIle)]KI[dF][dL]I[dA])), the “Staphylococcus aureus MIC” value in test [7] was 10 µM. Also, in test [1], the “Human Colorectal Carcinoma Cells (SW620) IC50” value was greater than 30 µg/mL. The “H. contortus L1–L3 Larvae Development EC50” value in test [2] was greater than 25 µg/mL. Further, the “D. immitis mf Motility EC50” value in test [3] is greater than 25 µg/mL. Besides, in test [8], the “inhibition of Erwinia amylovora” value is given as 40%.

Regarding `CC[C@H](C)[C@@H]1NC(=O)[C@H](CCCCNC)NC(=O)[C@@H]([C@@H](C)CC)NC(=O)[C@H]([C@@H](C)CC)NC(=O)[C@@H](C)NC(=O)[C@H]([C@@H](C)CC)NC(=O)[C@@H](CC(C)C)NC(=O)[C@@H](Cc2ccccc2)NC1=O` [surugamide K (4), surugamide K] (cyclo(I[d(aIle)][Lys(Me)]I[dF][dL]I[dA])), the “Human Colorectal Carcinoma Cells (SW620) IC50” value in test [1] is greater than 30 µg/mL. Also, the “H. contortus L1–L3 Larvae Development EC50” value in test [2] is greater than 25 µg/mL. For the same compound, the “D. immitis mf Motility EC50” value in test [3] is greater than 25 µg/mL.

`CC[C@@H](C)[C@H]1NC(=O)[C@H]([C@@H](C)CC)NC(=O)[C@@H](C)NC(=O)[C@H]([C@@H](C)CC)NC(=O)[C@@H](CC(C)C)NC(=O)[C@@H](Cc2ccccc2)NC(=O)[C@H]([C@@H](C)CC)NC(=O)[C@H](CCCCN)NC1=O` [surugamide S1 (9), cyclo[-L-Ile^1-D-Ile^2-L-Lys^3-L-Ile^4-D-Phe^5-D-Leu^6-L-Ile^7-D-Ala^8-]] (cyclo(I[dI]KI[dF][dL]I[dA])): the “H. contortus L1–L3 Larvae Development EC50” value in test [2] is greater than 25 µg/mL. In test [3], the “D. immitis mf Motility EC50” value is greater than 25 µg/mL.

`CC[C@H](C)[C@@H]1NC(=O)[C@H](CCCNC(=N)N)NC(=O)[C@@H]([C@@H](C)CC)NC(=O)[C@H]([C@@H](C)CC)NC(=O)[C@@H](C)NC(=O)[C@H]([C@@H](C)CC)NC(=O)[C@@H](CC(C)C)NC(=O)[C@@H](Cc2ccccc2)NC1=O` [surugamide S2 (10), surugamide S2] (cyclo(I[d(aIle)]RI[dF][dL]I[dA])): the “H. contortus L1–L3 Larvae Development EC50” value in test [2] was greater than 25 µg/mL. For the same compound, in test [3], the “D. immitis mf Motility EC50” value was greater than 25 µg/mL.

For `CC[C@H](C)[C@@H]1NC(=O)[C@H](C)NC(=O)[C@@H]([C@@H](C)CC)NC(=O)[C@H]([C@@H](C)CC)NC(=O)[C@@H](C)NC(=O)[C@H]([C@@H](C)CC)NC(=O)[C@@H](CC(C)C)NC(=O)[C@@H](Cc2ccccc2)NC1=O` [surugamide S3 (11), surugamide S3] (cyclo(I[d(aIle)]AI[dF][dL]I[dA])), the “H. contortus L1–L3 Larvae Development EC50” value in test [2] was greater than 25 µg/mL. Also, the “D. immitis mf Motility EC50” value in test [3] was greater than 25 µg/mL.

As to `CC[C@H](C)[C@@H]1NC(=O)[C@H](CCCCNC(=N)N)NC(=O)[C@@H]([C@@H](C)CC)NC(=O)[C@H]([C@@H](C)CC)NC(=O)[C@@H](C)NC(=O)[C@H]([C@@H](C)CC)NC(=O)[C@@H](CC(C)C)NC(=O)[C@@H](Cc2ccccc2)NC1=O` [surugamide S4 (12), surugamide S4] (cyclo(I[d(aIle)][hArg]I[dF][dL]I[dA])), in test [2], the “H. contortus L1–L3 Larvae Development EC50” value was greater than 25 µg/mL. In addition, the “D. immitis mf Motility EC50” value in test [3] is greater than 25 µg/mL.

The values are drawn from paper PMC11277932, “Australian Marine and Terrestrial Streptomyces-Derived Surugamides, and Synthetic Analogs, and Their Ability to Inhibit Dirofilaria immitis (Heartworm) Motility” (Marine Drugs, 2024).
